The source of these data is US11109593B2, “Isoxazolin-5-one derivative and herbicide containing same as active ingredient” (HOKKO CHEMICAL INDUSTRY CO., LTD., priority 2017, dated 2021).

What all share (assay type): in vivo
The test system of assay [1] is Amaranthus viridis. As to the kind of experiment: Test Example 3: herbicidal effect test by treatment of dry field farming soil (one day after seeding). The note with it: 120 g/10a active ingredient, evaluated 14 days after treatment. In outline:
(§1)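 Herbicidal rate (%) equals 1 minus treated/untreated mean plant dry weight, times 100, taken 14 days after treatment in duplicate pots. Emulsion diluted in water was applied at 100 L per 10 ares (120 g a.i. per 10 ares) one day after sowing 20 seeds per species into the top 1 cm of alluvial soil.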

Assay [2] relates to Echinochloa crus-galli. Described as above. The conditions noted are these: 120 g/10a active ingredient, evaluated 14 days after treatment. An outline of the steps: as §1
Assay [3] has as its system Chenopodium album. Described as above. The note with it: 120 g/10a active ingredient, evaluated 14 days after treatment. An outline of the steps: as §1
Assay [4] has as its system southern crabgrass. Described as above. The note with it: 120 g/10a active ingredient, evaluated 14 days after treatment. In outline: as §1
Assay [5] relates to Echinochloa crus-galli. The assay is described as follows: Test Example 1: herbicidal effect test by treatment of rice paddy soil (immediately after seeding). The conditions noted are these: 120 g/10a active ingredient, dry weight vs untreated area, 14 days after treatment. In outline:
(§2)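 Values are herbicidal rates (%) derived from average plant dry weight in treated versus untreated pots 14 days after treatment, run in duplicate. Treatment was a water-diluted emulsion dropped into flooded paddy soil right after sowing, at 120 g active ingredient per 10 ares.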

Assay [6] deals with Scirpus juncoides. The assay is described as above. The note with it: 120 g/10a active ingredient, dry weight vs untreated area, 14 days after treatment. An outline of the steps:
as §2

In assay [7] the test system is broad leaf weeds (Lindernia pyxidaria and Monochoria vaginalis). The description is as above. The note with it: 120 g/10a active ingredient, dry weight vs untreated area, 14 days after treatment; for pest or weed control at 1200 g/ha: 336 h. An outline of the steps: as §2
Assay [8] deals with Echinochloa crus-galli. As to the kind of experiment: Test Example 2: herbicidal effect test by treatment during growing period in paddy rice cultivation (seven days after seeding). The conditions noted are these: 120 g/10a active ingredient, assessed 14 days after treatment, dry weight vs untreated area. An outline of the steps: (§3)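 Herbicidal rate (%) = {1 − treated/untreated mean plant dry weight} × 100, assessed in duplicate 14 days post-treatment. Emulsion formulations were diluted in water and dropped onto flooded (about 3 cm) paddy pots 7 days after seeding, giving 120 g a.i. per 10 ares. Plants were grown in a glass greenhouse.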

In assay [9] the test system is Scirpus juncoides. Described as above. The conditions noted are these: 120 g/10a active ingredient, assessed 14 days after treatment, dry weight vs untreated area. An outline of the steps:
as §3

The subject of assay [10] is broad leaf weeds (Lindernia pyxidaria and Monochoria vaginalis). The description is as above. The note with it: 120 g/10a active ingredient, assessed 14 days after treatment, dry weight vs untreated area; for pest or weed control at 1200 g/ha: 336 h. In outline: as §3
Assay [11] relates to Amaranthus viridis. The assay is described as follows: Test Example 4: herbicidal effect test by treatment of leave and stem in dry field farming (seven days after seeding). The note with it: 120 g/10a active ingredient, emulsion sprayed seven days after seeding, evaluated 14 days after treatment. In outline:
(§4)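 Duplicate pots were scored 14 days post-spray by dry weight, herbicidal rate = {1 − treated/untreated average dry weight} × 100. The water-diluted emulsion, equivalent to 120 g active ingredient per 10 ares in 100 L, was applied seven days after sowing 20 seeds each into the upper 1 cm of alluvial soil.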

For assay [12], the system named is Echinochloa crus-galli. Described as above. The conditions noted are these: 120 g/10a active ingredient, emulsion sprayed seven days after seeding, evaluated 14 days after treatment. An outline of the steps: as §4
Assay [13] concerns Chenopodium album. Described as above. The note with it: 120 g/10a active ingredient, emulsion sprayed seven days after seeding, evaluated 14 days after treatment. In outline: as §4
Assay [14] has as its system southern crabgrass. The assay is described as above. The conditions noted are these: 120 g/10a active ingredient, emulsion sprayed seven days after seeding, evaluated 14 days after treatment. In outline:
as §4

Consider `CC(=O)N(c1ccccc1Cc1c(C)n(CC(C)C)oc1=O)S(=O)(=O)C(F)(F)F` [Compound 1-297, N-[2-[(2-isobutyl-3-methyl-5-oxoisoxazol-4-yl)methyl]phenyl]-N-(trifluoromethylsulfonyl)acetamide], for which the pest or weed control at 1200 g/ha in the assay on Amaranthus viridis [1] (Amaranthus viridis, 336 h, read-out: herbicidal rate, Amaranthus viridis) was found to be 90%; with Echinochloa crus-galli [2] (Echinochloa crus-galli, 336 h, read-out: herbicidal rate, Echinochloa crus-galli), 100%; in the assay with Chenopodium album [3] (Chenopodium album, 336 h, read-out: herbicidal rate, Chenopodium album), 90%; in the assay on southern crabgrass [4] (Digitaria ciliaris, 336 h, read-out: herbicidal rate, southern crabgrass), 90%; in the assay on Echinochloa crus-galli [5] (in Echinochloa crus-galli, 336 h, read-out: Herbicidal rate (%) Echinochloa crus-galli), 100%; with Scirpus juncoides [6] (in Schoenoplectiella juncoides, 336 h, read-out: Herbicidal rate (%) Scirpus juncoides), 100%. In addition, the pest or weed control at 1200 g/ha in assay [7] (Monochoria vaginalis, read-out: Herbicidal rate (%) Monochoria vaginalis) is 100%; in assay [7] (in Lindernia, Lindernia pyxidaria, read-out: Herbicidal rate (%) Lindernia pyxidaria) it was 100%; in the assay with Echinochloa crus-galli [8] (Echinochloa crus-galli, 336 h, read-out: herbicidal rate (%) Echinochloa crus-galli), 100%; in the assay with Scirpus juncoides [9] (Schoenoplectiella juncoides, 336 h, read-out: herbicidal rate (%) Scirpus juncoides) it was 90%; in [10] (Lindernia pyxidaria, read-out: herbicidal rate (%) Lindernia pyxidaria) it was 100%; in [10] (Monochoria vaginalis, read-out: herbicidal rate (%) Monochoria vaginalis), 90%. The pest or weed control at 1200 g/ha amounted to 40% with Amaranthus viridis [11] (Amaranthus viridis, 336 h, read-out: herbicidal effect (herbicidal rate), Amaranthus viridis); 80% in the assay on Echinochloa crus-galli [12] (Echinochloa crus-galli, 336 h, read-out: herbicidal effect (herbicidal rate), Echinochloa crus-galli); 40% in the assay on Chenopodium album [13] (Chenopodium album, 336 h, read-out: herbicidal effect (herbicidal rate), Chenopodium album); 60% with southern crabgrass [14] (Digitaria ciliaris, 336 h, read-out: herbicidal effect (herbicidal rate), southern crabgrass).
Regarding `CC(=O)N(c1ccccc1Cc1c(C)n(CC(C)(C)C)oc1=O)S(=O)(=O)C(F)(F)F` [Compound 1-298], the “herbicidal rate, Amaranthus viridis” value in the assay on Amaranthus viridis [1] was found to be 90%. Further, the “herbicidal rate, Echinochloa crus-galli” value in the assay with Echinochloa crus-galli [2] is 90%. The “herbicidal rate, Chenopodium album” value in the assay with Chenopodium album [3] is 90%. In addition, in the assay on southern crabgrass [4], the “herbicidal rate, southern crabgrass” value was 90%. Also, the “Herbicidal rate (%) Echinochloa crus-galli” value in the assay on Echinochloa crus-galli [5] and in the assay on Echinochloa crus-galli [8] was 90% each time. Further, the “Herbicidal rate (%) Scirpus juncoides” value with Scirpus juncoides [6] and with Scirpus juncoides [9] was 90% throughout. For the same molecule, the “Herbicidal rate (%) Lindernia pyxidaria” value in assay [7] (Lindernia pyxidaria) and in [10] (Lindernia pyxidaria) was 90% in each case. Further, the “Herbicidal rate (%) Monochoria vaginalis” value in assay [7] (Monochoria vaginalis) and in [10] (Monochoria vaginalis) was 90% throughout. Moreover, the “herbicidal effect (herbicidal rate), Amaranthus viridis” value (from here on “herbicidal effect … Amaranthus viridis”) in the assay on Amaranthus viridis [11] turned out to be 40%. Besides, the “herbicidal effect (herbicidal rate), Echinochloa crus-galli” value in the assay with Echinochloa crus-galli [12] was determined as 90%. Moreover, the “herbicidal effect (herbicidal rate), Chenopodium album” value (“herbicidal effect … Chenopodium album” for short) with Chenopodium album [13] worked out at 40%. For the same molecule, the “herbicidal effect (herbicidal rate), southern crabgrass” value (“herbicidal effect … southern crabgrass” below) with southern crabgrass [14] was determined as 90%.
For `CCCC(C)n1oc(=O)c(Cc2ccccc2N(C(C)=O)S(=O)(=O)C(F)(F)F)c1C` (stereo not drawn) [Compound 1-299], the “herbicidal rate, Amaranthus viridis” value in the assay with Amaranthus viridis [1] was found to be 70%. In addition, the “herbicidal rate, Echinochloa crus-galli” value in the assay on Echinochloa crus-galli [2] was found to be 90%. For the same molecule, in the assay on Chenopodium album [3], the “herbicidal rate, Chenopodium album” value turned out to be 40%. Also, the “herbicidal rate, southern crabgrass” value in the assay on southern crabgrass [4] is 80%. The “Herbicidal rate (%) Echinochloa crus-galli” value in the assay on Echinochloa crus-galli [5] and with Echinochloa crus-galli [8] was 100% throughout. Besides, the “Herbicidal rate (%) Scirpus juncoides” value with Scirpus juncoides [6] and in the assay with Scirpus juncoides [9] was 90% throughout. In addition, the “Herbicidal rate (%) Lindernia pyxidaria” value in assay [7] (Lindernia pyxidaria) amounted to 100%; in [10] (Lindernia pyxidaria), 60%. Besides, the “Herbicidal rate (%) Monochoria vaginalis” value in [7] (Monochoria vaginalis) is given as 80%; in [10] (Monochoria vaginalis) it was 70%. In addition, the “herbicidal effect … Amaranthus viridis” value in the assay with Amaranthus viridis [11] is recorded as 40%. For the same molecule, the “herbicidal effect (herbicidal rate), Echinochloa crus-galli” value with Echinochloa crus-galli [12] worked out at 90%. Further, the “herbicidal effect … Chenopodium album” value with Chenopodium album [13] came out at 90%. The “herbicidal effect … southern crabgrass” value in the assay on southern crabgrass [14] is on record as 80%.
As to `CCC(C)Cn1oc(=O)c(Cc2ccccc2N(C(C)=O)S(=O)(=O)C(F)(F)F)c1C` (stereo not drawn) [Compound 1-300], the “herbicidal rate, Amaranthus viridis” value in the assay with Amaranthus viridis [1] was 80%. In the assay with Echinochloa crus-galli [2], the “herbicidal rate, Echinochloa crus-galli” value worked out at 90%. For the same molecule, the “herbicidal rate, Chenopodium album” value with Chenopodium album [3] is recorded as 60%. In addition, the “herbicidal rate, southern crabgrass” value in the assay on southern crabgrass [4] is 100%. Further, the “Herbicidal rate (%) Echinochloa crus-galli” value with Echinochloa crus-galli [5] and in the assay on Echinochloa crus-galli [8] was 100% in each case. Further, the entries for the “Herbicidal rate (%) Scirpus juncoides” value in the assay with Scirpus juncoides [6] and with Scirpus juncoides [9] were 90% and 80%, respectively. Besides, the figures for the “Herbicidal rate (%) Lindernia pyxidaria” value in [7] (Lindernia pyxidaria) and in assay [10] (Lindernia pyxidaria) were 80% and 70%, respectively. The figures for the “Herbicidal rate (%) Monochoria vaginalis” value in assay [7] (Monochoria vaginalis) and in [10] (Monochoria vaginalis) were 70% and 90%, respectively. Also, the “herbicidal effect … Amaranthus viridis” value in the assay with Amaranthus viridis [11] is 70%. For the same molecule, the “herbicidal effect (herbicidal rate), Echinochloa crus-galli” value in the assay on Echinochloa crus-galli [12] is reported as 90%. In addition, the “herbicidal effect … Chenopodium album” value in the assay on Chenopodium album [13] is 60%. The “herbicidal effect … southern crabgrass” value in the assay on southern crabgrass [14] stood at 90%.
Turning to `COCC(C)n1oc(=O)c(Cc2ccccc2N(C(C)=O)S(=O)(=O)C(F)(F)F)c1C` (stereo not drawn) [Compound 1-304], the “herbicidal rate, Amaranthus viridis” value with Amaranthus viridis [1] came to 90%. The “herbicidal rate, Echinochloa crus-galli” value in the assay on Echinochloa crus-galli [2] came out at 90%. The “herbicidal rate, Chenopodium album” value in the assay with Chenopodium album [3] stood at 90%. The “herbicidal rate, southern crabgrass” value in the assay with southern crabgrass [4] was 90%. The “Herbicidal rate (%) Echinochloa crus-galli” value in the assay with Echinochloa crus-galli [5] and in the assay with Echinochloa crus-galli [8] was 90% throughout. The “Herbicidal rate (%) Scirpus juncoides” value in the assay with Scirpus juncoides [6] and with Scirpus juncoides [9] was 90% throughout. For the same molecule, the “Herbicidal rate (%) Lindernia pyxidaria” value in [7] (Lindernia pyxidaria) and in [10] (Lindernia pyxidaria) was 90% throughout. The “Herbicidal rate (%) Monochoria vaginalis” value in [7] (Monochoria vaginalis) and in assay [10] (Monochoria vaginalis) was 90% throughout. Also, in the assay on Amaranthus viridis [11], the “herbicidal effect … Amaranthus viridis” value amounted to 40%. Further, the “herbicidal effect (herbicidal rate), Echinochloa crus-galli” value in the assay on Echinochloa crus-galli [12] worked out at 90%. In addition, the “herbicidal effect … Chenopodium album” value with Chenopodium album [13] worked out at 40%. Also, in the assay on southern crabgrass [14], the “herbicidal effect … southern crabgrass” value turned out to be 90%.
For `CSCCn1oc(=O)c(Cc2ccccc2N(C(C)=O)S(=O)(=O)C(F)(F)F)c1C` [Compound 1-305], the “herbicidal rate, Amaranthus viridis” value in the assay on Amaranthus viridis [1] was 90%. The “herbicidal rate, Echinochloa crus-galli” value in the assay on Echinochloa crus-galli [2] was 90%. For the same molecule, in the assay on Chenopodium album [3], the “herbicidal rate, Chenopodium album” value is given as 90%. Moreover, the “herbicidal rate, southern crabgrass” value with southern crabgrass [4] came to 90%. For the same molecule, the “Herbicidal rate (%) Echinochloa crus-galli” value in the assay on Echinochloa crus-galli [5] and in the assay on Echinochloa crus-galli [8] was 90% throughout. The “Herbicidal rate (%) Scirpus juncoides” value with Scirpus juncoides [6] and in the assay on Scirpus juncoides [9] was 90% throughout. Besides, the “Herbicidal rate (%) Lindernia pyxidaria” value in assay [7] (Lindernia pyxidaria) and in [10] (Lindernia pyxidaria) was 90% each time. Further, the “Herbicidal rate (%) Monochoria vaginalis” value in [7] (Monochoria vaginalis) and in assay [10] (Monochoria vaginalis) was 90% throughout. Moreover, the “herbicidal effect … Amaranthus viridis” value in the assay with Amaranthus viridis [11] stood at 40%. Further, the “herbicidal effect (herbicidal rate), Echinochloa crus-galli” value with Echinochloa crus-galli [12] was found to be 90%. In addition, the “herbicidal effect … Chenopodium album” value in the assay with Chenopodium album [13] came out at 40%. Also, the “herbicidal effect … southern crabgrass” value in the assay with southern crabgrass [14] is reported as 90%.
